Source: patent US5883243A, “Non-reducing saccharides, their preparations and uses” (Kabushiki Kaisha Hayashibara Seibutsu Kagaku Kenkyujo, priority 1997, dated 1999)

Legend:
[1] = test system: Streptococcus sobrinus ATCC 27351; assay: Acid formation by dental caries-inducing microorganisms; conditions: living wet cells, 0.02M saccharide, Stephen buffer pH 7.0, 37° C.; for pH at each fermentation time (min): 0: 0 min; for pH at each fermentation time (min): 5: 5 min; for pH at each fermentation time (min): 15: 15 min; for pH at each fermentation time (min): 30: 30 min; for pH at each fermentation time (min): 60: 60 min; for pH at each fermentation time (min): 90: 90 min
[2] = Maillard reaction (coloration with glycine); assay type: physicochemical; conditions: 10 w/v % saccharide, one w/v % glycine, 50 mM phosphate buffer pH 7.0, 100° C., 90 min; 1-cm cell
[3] = test system: Bifidobacterium breve JCM 1192; assay: Assimilation test by intestinal microorganism; assay type: cell-based; conditions: 0.5 w/v % saccharide in PYF broth, 37° C., 96 hours
[4] = test system: Bifidobacterium longum JCM 1217; assay: Assimilation test by intestinal microorganism; assay type: cell-based; conditions: 0.5 w/v % saccharide in PYF broth, 37° C., 96 hours
bifid bacteria [5] = assay: Influence on growth-promoting activity for bifid bacteria in vivo (feces of volunteers); parameters: species or system human; conditions: after vs before 14-day administration; span over both saccharides
Method: The weight of daily feces before and after the 14-day administration tests, the relative change of feces' weight, the feces' pH, the total number of microorganisms per g of feces, the percentage of the number of bifid bacteria to the total number of microorganisms in feces, and the relative change of the total number of bifid bacteria were measured, followed by calculating the mean value of the five volunteers. Among these measurements, the total number of microorganisms was determined in accordance with the method as reported in "A Color Atlas of Anaerobic Bacteria", pp.53-65 (1984), edited by Tomotari MITSUOKA, published by Kabushiki Kaisha Sobunsha, Tokyo, Japan (1984): The colonies grown in 13 different types of media excluding M10 medium were judged for which genus they belong to and counted for cells. The cell count obtained with a specific medium, which gave the highest number of microorganisms for each genus, was determined to be a real cell count. The total cell count of microorganisms of all the genera was determined to be the total number of microorganisms in each volunteer's feces.

[6] = test system: Enzyme from small intestinal mucus membrane; conditions: enzymes of small intestinal mucus membranes
[7] = test system: Bacteroides distasonis JCM 5825; assay: Assimilation test by intestinal microorganism; assay type: cell-based; conditions: 0.5 w/v % saccharide in PYF broth, 37° C., 96 hours
[8] = test system: Escherichia coli IFO 3301; assay: Assimilation test by intestinal microorganism; assay type: cell-based; conditions: 0.5 w/v % saccharide in PYF broth, 37° C., 96 hours
[9] = test system: Bifidobacterium animalis JCM 1190; assay: Assimilation test by intestinal microorganism; assay type: cell-based; conditions: 0.5 w/v % saccharide in PYF broth, 37° C., 96 hours
[10] = test system: Bacteroides vulgatus JCM 5826; assay: Assimilation test by intestinal microorganism; assay type: cell-based; conditions: 0.5 w/v % saccharide in PYF broth, 37° C., 96 hours
[11] = test system: Streptococcus faecalis IAM 10065; assay: Assimilation test by intestinal microorganism; assay type: cell-based; conditions: 0.5 w/v % saccharide in PYF broth, 37° C., 96 hours
[12] = test system: Peptostreptococcus prevotii ATCC 9321; assay: Assimilation test by intestinal microorganism; assay type: cell-based; conditions: 0.5 w/v % saccharide in PYF broth, 37° C., 96 hours
[13] = test system: Bifidobacterium bifidum JCM 1255; assay: Assimilation test by intestinal microorganism; assay type: cell-based; conditions: 0.5 w/v % saccharide in PYF broth, 37° C., 96 hours
[14] = test system: Lactobacillus fermentum IFO 3959; assay: Assimilation test by intestinal microorganism; assay type: cell-based; conditions: 0.5 w/v % saccharide in PYF broth, 37° C., 96 hours
[15] = test system: Bifidobacterium adolescentis JCM 1275; assay: Assimilation test by intestinal microorganism; assay type: cell-based; conditions: 0.5 w/v % saccharide in PYF broth, 37° C., 96 hours
[16] = test system: Bacteroides uniformis JCM 5828; assay: Assimilation test by intestinal microorganism; assay type: cell-based; conditions: 0.5 w/v % saccharide in PYF broth, 37° C., 96 hours
[17] = test system: crude glucosyltransferase specimen derived from Streptococcus sobrinus strain (ATCC 27351); assay: Inhibition of insoluble glucan formation by glucosyltransferase from dental caries-inducing microorganism; assay type: biochemical; conditions: sucrose plus test saccharide (one ml of one w/v % each), pH 6.8, 37° C., 16 hours; for Yield of non-adsorbed glucans: sucrose alone 923; for Yield of adsorbed glucans: sucrose alone 1,160
Method: To a mixture solution consisting of one ml of one w/v % sucrose solution, one ml of one w/v % of a test saccharide solution, and 1.5 ml of 0.1M phosphate buffer (pH 6.8) was added 0.5 ml solution containing a crude glucosyltransferase specimen in a total protein content of 10 mg, and the mixture solution was placed in a small test tube which was then fixed and slanted to give a grade 30 degrees and allowed to react at 37° C. for 16 hours. The reaction mixture was transferred gently to another test tube and mixed with a solution obtained by washing carefully with 4 ml water the remaining substances adhered to the inner walls of the small test tube, and the mixture solution was centrifuged to obtain a precipitate as a non-adsorbed glucan. The amounts of the adsorbed- and non-adsorbed glucans thus obtained were respectively quantified by the anthrone-sulfuric acid method, and the total amount of them was regarded as the amount of the formed insoluble glucans. As a control system, a reaction system using water in place of the test saccharide solution, i.e. a reaction system using sucrose as a saccharide, was provided.

[18] = test system: Clostridium ramosum JCM 1298; assay: Assimilation test by intestinal microorganism; assay type: cell-based; conditions: 0.5 w/v % saccharide in PYF broth, 37° C., 96 hours
[19] = test system: Lactobacillus plantarum IFO 3070; assay: Assimilation test by intestinal microorganism; assay type: cell-based; conditions: 0.5 w/v % saccharide in PYF broth, 37° C., 96 hours
[20] = test system: Clostridium perfringens JCM 3816; assay type: cell-based; conditions: 0.5 w/v % saccharide in PYF broth, 37° C., 96 hours
[21] = test system: Eubacterium aerofaciens ATCC 25986; assay: Assimilation test by intestinal microorganism; assay type: cell-based; conditions: 0.5 w/v % saccharide in PYF broth, 37° C., 96 hours
bifid bacteria [22] = assay: Assimilation test by intestinal microorganism, overall judgement; assay type: cell-based; conditions: results of Tables 4 and 5
Method: To evaluate the growth rate of and to judge the assimilability by the microorganisms, the resultant broth was diluted 5-fold, and the turbidity of the dilution was measured at a wavelength of 750 nm in a 1-cm light-path cell. […] The criteria were in Table 3, and the results were in Tables 4 and 5: […]

Acute toxicity test = assay type: in vivo; conditions: oral, mice, highest possible dose
From the text: As a result, no mouse died even when administered with a highest possible dose. This means that the LD50 is 50 g/kg mouse or more and concludes that it is extremely low in toxicity.

[23] = test system: Bifidobacterium infantis JCM 1222; assay: Assimilation test by intestinal microorganism; assay type: cell-based; conditions: 0.5 w/v % saccharide in PYF broth, 37° C., 96 hours
[24] = test system: Clostridium butyricum JCM 1391; assay type: cell-based; conditions: 0.5 w/v % saccharide in PYF broth, 37° C., 96 hours

| Compound | pH at each fermentation time (min): 0 [1] | pH at each fermentation time (min): 5 [1] | pH at each fermentation time (min): 15 [1] | pH at each fermentation time (min): 30 [1] | pH at each fermentation time (min): 60 [1] | pH at each fermentation time (min): 90 [1] | Coloration degree (at a wavelength of 480 nm) [2] | Judgement of assimilation (turbidity at a wavelength of 750 nm × 5) [3] | Judgement of assimilation (turbidity at a wavelength of 750 nm × 5) [4] | Increase of the total cell count of bifid bacteria (bifid bacteria [5]) | Digestibility, judgement in words [6] | Judgement of assimilation (turbidity at a wavelength of 750 nm × 5) [7] | Judgement of assimilation (turbidity at a wavelength of 750 nm × 5) [8] | Judgement of assimilation (turbidity at a wavelength of 750 nm × 5) [9] | Judgement of assimilation (turbidity at a wavelength of 750 nm × 5) [10] | Judgement of assimilation (turbidity at a wavelength of 750 nm × 5) [11] | Judgement of assimilation (turbidity at a wavelength of 750 nm × 5) [12] | Judgement of assimilation (turbidity at a wavelength of 750 nm × 5) [13] | Judgement of assimilation (turbidity at a wavelength of 750 nm × 5) [14] | Judgement of assimilation (turbidity at a wavelength of 750 nm × 5) [15] | further results |
| --- | --- | --- | --- | --- | --- | --- | --- | --- | --- | --- | --- | --- | --- | --- | --- | --- | --- | --- | --- | --- | --- |
| OC[C@H]1O[C@H](OC[C@H]2O[C@H](O[C@H]3O[C@H](CO)[C@@H](O)[C@H](O)[C@H]3O)[C@H](O)[C@@H](O)[C@@H]2O)[C@H](O)[C@@H](O)[C@@H]1O [O-α-D-glucopyranosyl-(1→6)-α-D-glucopyranosyl α-D-glucopyranoside] | 7.0 | 7.0 | 6.9 | 6.9 | 6.9 | 6.9 | 0.021 | +++ (0.3 or higher) | +++ (0.3 or higher) | 2.3- to 2.5 fold | slightly hydrolyzed | - (Less than 0.1) | - (Less than 0.1) | +++ (0.3 or higher) | - (Less than 0.1) | - (Less than 0.1) | ± (0.1 or higher but less than 0.15) | ++ (0.2 or higher but less than 0.3) | - (Less than 0.1) | +++ (0.3 or higher) | Judgement of assimilation (turbidity at a wavelength of 750 nm × 5) [16]: - (Less than 0.1); Yield of non-adsorbed glucans [17]: 118 µg/mL; Yield of adsorbed glucans [17]: 30 µg/mL; Judgement of assimilation (turbidity at a wavelength of 750 nm × 5) [18]: - (Less than 0.1); Judgement of assimilation (turbidity at a wavelength of 750 nm × 5) [19]: - (Less than 0.1); Judgement of assimilation (turbidity at a wavelength of 750 nm × 5) [20]: + (0.15 or higher but less than 0.2); Judgement of assimilation (turbidity at a wavelength of 750 nm × 5) [21]: - (Less than 0.1); Selective assimilability by bifid bacteria, in words (bifid bacteria [22]): high in the selective assimilability by bifid bacteria; Mortality in acute toxicity test, in words (Acute toxicity test): no mouse died; Judgement of assimilation (turbidity at a wavelength of 750 nm × 5) [23]: +++ (0.3 or higher) |
| OC[C@H]1O[C@H](OC[C@H]2O[C@H](O[C@H]3O[C@H](CO[C@H]4O[C@H](CO)[C@@H](O)[C@H](O)[C@H]4O)[C@@H](O)[C@H](O)[C@H]3O)[C@H](O)[C@@H](O)[C@@H]2O)[C@H](O)[C@@H](O)[C@@H]1O [α-Isomaltosyl α-isomaltoside, O-α-D-glucopyranosyl-(1→6)-α-D-glucopyranosyl O-α-D-glucopyranosyl-(1→6)-α-D-glucopyranoside] | 7.0 | 7.0 | 6.9 | 6.9 | 6.9 | 6.9 | 0.016 | +++ (0.3 or higher) | +++ (0.3 or higher) | 2.3- to 2.5 fold | relatively-low in digestibility | - (Less than 0.1) | - (Less than 0.1) | +++ (0.3 or higher) | - (Less than 0.1) | - (Less than 0.1) | ± (0.1 or higher but less than 0.15) | ++ (0.2 or higher but less than 0.3) | - (Less than 0.1) | +++ (0.3 or higher) | Judgement of assimilation (turbidity at a wavelength of 750 nm × 5) [24]: +++ (0.3 or higher); Judgement of assimilation (turbidity at a wavelength of 750 nm × 5) [16]: - (Less than 0.1); Yield of non-adsorbed glucans [17]: 298 µg/mL; Yield of adsorbed glucans [17]: 72 µg/mL; Judgement of assimilation (turbidity at a wavelength of 750 nm × 5) [18]: - (Less than 0.1); Judgement of assimilation (turbidity at a wavelength of 750 nm × 5) [19]: - (Less than 0.1); Judgement of assimilation (turbidity at a wavelength of 750 nm × 5) [20]: - (Less than 0.1); Judgement of assimilation (turbidity at a wavelength of 750 nm × 5) [21]: - (Less than 0.1); Selective assimilability by bifid bacteria, in words (bifid bacteria [22]): high in the selective assimilability by bifid bacteria; Judgement of assimilation (turbidity at a wavelength of 750 nm × 5) [23]: +++ (0.3 or higher) |
